In brackets after ≈: the same amount, converted by molar mass. Read-outs that look alike come from different tables or passages of the source.
How the values were obtained:
[1] = target: hERG (Homo sapiens (Human), UniProt Q12809); experiment: hERG assay (Test D), SyncroPatch 384PE patch clamp, hERG-expressing CHO cells; type: cell-based; settings: rt
[2] = Solubility (Test E); type: physicochemical
[3] = Solubility (Test F), McIlvaine buffer pH 6.5; type: physicochemical; settings: disodium hydrogenphosphate-citric acid (McIlvaine) buffer, 25 °C, pH 6.5, aqueous buffer, thermodynamic from solid, McIlvaine buffer pH 6.5, 25° C., 24 to 72 h; theoretical maximum 200 μM
[4] = test system: IL-1β production; experiment: LPS/ATP test in mice, peritoneal IL-1β by ELISA; type: in vivo, BALB/cAJcl mice; settings: Mus musculus, LPS/ATP i.p.; for inhibition at 1 mg/kg: 1 mg/kg orally; for inhibition at 3 mg/kg: 3 mg/kg orally
[5] = target: T1, Human NLRP3 (Homo sapiens (Human), UniProt Q96P20); settings: Test C IC50, IL-1β release, THP-1 cells, LPS 2 μg/mL 24 h, BzATP 1 mM
[6] = target: T1, Human NLRP3
[7] = target: T1, Human NLRP3; experiment: Human NLRP3 speck formation assay (Test A), nigericin triggered ASC-speck formation in ASC-GFP reporter monocytes

hERG, sequence (Q12809 whole entry): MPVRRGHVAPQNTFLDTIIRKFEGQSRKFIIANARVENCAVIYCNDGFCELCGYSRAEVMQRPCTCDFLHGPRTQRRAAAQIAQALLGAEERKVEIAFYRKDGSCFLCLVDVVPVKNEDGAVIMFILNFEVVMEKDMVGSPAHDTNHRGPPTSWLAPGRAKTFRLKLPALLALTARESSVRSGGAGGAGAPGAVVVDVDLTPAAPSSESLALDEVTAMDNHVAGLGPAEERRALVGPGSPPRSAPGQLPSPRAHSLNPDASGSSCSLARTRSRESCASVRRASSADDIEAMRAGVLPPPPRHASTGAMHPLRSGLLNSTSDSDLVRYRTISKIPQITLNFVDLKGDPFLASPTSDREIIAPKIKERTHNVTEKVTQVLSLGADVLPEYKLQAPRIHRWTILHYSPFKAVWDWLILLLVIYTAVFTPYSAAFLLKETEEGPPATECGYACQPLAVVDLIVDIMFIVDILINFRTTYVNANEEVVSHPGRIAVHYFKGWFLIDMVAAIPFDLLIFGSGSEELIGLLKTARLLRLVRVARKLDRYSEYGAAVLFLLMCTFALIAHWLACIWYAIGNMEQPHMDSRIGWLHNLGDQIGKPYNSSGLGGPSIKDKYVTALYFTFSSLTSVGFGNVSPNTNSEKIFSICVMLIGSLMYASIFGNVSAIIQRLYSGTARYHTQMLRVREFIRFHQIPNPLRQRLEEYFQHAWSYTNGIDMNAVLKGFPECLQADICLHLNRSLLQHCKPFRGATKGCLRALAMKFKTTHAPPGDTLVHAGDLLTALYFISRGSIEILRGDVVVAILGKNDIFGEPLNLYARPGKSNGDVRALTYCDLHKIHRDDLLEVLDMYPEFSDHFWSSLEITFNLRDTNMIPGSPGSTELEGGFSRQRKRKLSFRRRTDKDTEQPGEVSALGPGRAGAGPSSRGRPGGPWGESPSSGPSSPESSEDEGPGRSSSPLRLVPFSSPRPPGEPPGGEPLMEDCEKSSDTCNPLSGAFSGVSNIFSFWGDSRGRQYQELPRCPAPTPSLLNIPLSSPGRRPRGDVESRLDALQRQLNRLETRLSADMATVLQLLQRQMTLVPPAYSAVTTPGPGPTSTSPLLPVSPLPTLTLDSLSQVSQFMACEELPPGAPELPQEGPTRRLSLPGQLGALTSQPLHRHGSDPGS
T1 sequence (Q96P20 whole entry): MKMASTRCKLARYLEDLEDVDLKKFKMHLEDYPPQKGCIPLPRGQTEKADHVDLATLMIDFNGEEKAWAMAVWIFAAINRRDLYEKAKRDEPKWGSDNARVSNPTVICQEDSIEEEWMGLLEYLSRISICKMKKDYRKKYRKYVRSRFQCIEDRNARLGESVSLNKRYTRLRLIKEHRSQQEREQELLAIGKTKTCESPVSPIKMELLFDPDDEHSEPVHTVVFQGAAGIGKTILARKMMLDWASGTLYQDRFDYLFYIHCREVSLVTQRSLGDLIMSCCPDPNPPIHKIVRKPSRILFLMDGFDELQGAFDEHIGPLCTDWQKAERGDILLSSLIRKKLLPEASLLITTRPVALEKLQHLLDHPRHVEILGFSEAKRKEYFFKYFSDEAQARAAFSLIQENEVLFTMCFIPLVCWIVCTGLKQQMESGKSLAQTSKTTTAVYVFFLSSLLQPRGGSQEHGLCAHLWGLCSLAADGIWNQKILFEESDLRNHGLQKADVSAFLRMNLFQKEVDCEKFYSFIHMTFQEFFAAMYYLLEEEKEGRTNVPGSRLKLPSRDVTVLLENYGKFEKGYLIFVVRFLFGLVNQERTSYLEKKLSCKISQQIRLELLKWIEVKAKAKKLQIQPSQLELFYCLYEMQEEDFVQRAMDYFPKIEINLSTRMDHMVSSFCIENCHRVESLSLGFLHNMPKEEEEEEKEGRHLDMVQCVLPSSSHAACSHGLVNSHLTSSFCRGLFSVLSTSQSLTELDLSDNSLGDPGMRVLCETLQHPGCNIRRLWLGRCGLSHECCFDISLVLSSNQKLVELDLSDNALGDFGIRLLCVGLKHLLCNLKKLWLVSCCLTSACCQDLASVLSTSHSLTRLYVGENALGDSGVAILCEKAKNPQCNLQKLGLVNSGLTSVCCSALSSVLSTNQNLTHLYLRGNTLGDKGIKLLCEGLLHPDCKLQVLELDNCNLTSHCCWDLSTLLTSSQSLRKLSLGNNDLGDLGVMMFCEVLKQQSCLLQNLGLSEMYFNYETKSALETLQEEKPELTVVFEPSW

Structure (SMILES)	IC50 [1]	solubility [2]	solubility [3]	inhibition at 1 mg/kg [4]	inhibition at 3 mg/kg [4]	IC50 [5]	IC50 [6]	EC50 [7]
C[C@@]1(O)CC[C@@H](Nc2nnc(-c3ccc(C(F)(F)F)cc3O)c3ccncc23)C1 [Example 38, 2-[4-[[(1R,3R)-3-hydroxy-3-methyl-cyclopentyl]amino]pyrido[3,4-d]pyridazin-1-yl]-5-(trifluoromethyl)phenol]	> 40000 nM	810 µM (≈ 328 µg/mL)	> 80.9 µg/mL	29%	83%	9 nM	16 nM	27 nM
Oc1cc(C(F)(F)F)cc(F)c1-c1nnc(N[C@@H]2CCC[C@H](O)C2)c2cnccc12 [Example 45, 3-fluoro-2-[4-[[(1R,3S)-3-hydroxycyclohexyl]amino]pyrido[3,4-d]pyridazin-1-yl]-5-(trifluoromethyl)phenol]	> 40000 nM	121 µM (≈ 51.1 µg/mL)	10.4 µg/mL (≈ 24.6 µM)		82%	9 nM	25 nM	44 nM
Oc1cc(OC(F)(F)F)ccc1-c1nnc(N[C@@H]2CCCC[C@H]2O)c2cnccc12 [Example 56, 2-[4-[[(1R,2R)-2-hydroxycyclohexyl]amino]pyrido[3,4-d]pyridazin-1-yl]-5-(trifluoromethoxy)phenol]	19000 nM	263 µM (≈ 111 µg/mL)	14.5 µg/mL (≈ 34.5 µM)		98%	3 nM	8 nM	25 nM
Oc1cc(C(F)(F)F)ccc1-c1nnc(N[C@@H]2CC[C@@H](O)C2)c2cnccc12 [Example 59, 2-(4-(((1R,3R)-3-hydroxycyclopentyl)amino)pyrido[3,4-d]pyridazin-1-yl)-5-(trifluoromethyl)phenol]	> 40000 nM	47 µM (≈ 18.3 µg/mL)	> 78.1 µg/mL	44%	70%	5 nM	9 nM	16 nM
Oc1cc(C(F)(F)F)ccc1-c1nnc(N[C@@H]2CC[C@H](O)C2)c2cnccc12 [Example 60, 2-(4-(((1R,3S)-3-hydroxycyclopentyl)amino)pyrido[3,4-d]pyridazin-1-yl)-5-(trifluoromethyl)phenol]	> 40000 nM	26 µM (≈ 10.1 µg/mL)	10.3 µg/mL (≈ 26.4 µM)	60%	97%	< 3 nM	12 nM	17 nM
CC(C)(O)CNc1nnc(-c2ccc(C(F)(F)F)cc2O)c2ccncc12 [Example 70, 2-[4-[(2-hydroxy-2-methyl-propyl)amino]pyrido[3,4-d]pyridazin-1-yl]-5-(trifluoromethyl)phenol]	> 40000 nM	5 µM (≈ 1.89 µg/mL)	17.7 µg/mL (≈ 46.8 µM)		98%	10 nM	26 nM	67 nM
